# Test results taken from patent US20170209579A1, “NON-INVASIVE RADIOFREQUENCY FIELD TREATMENT FOR CANCER THERAPY” (Baylor College of Medicine, priority 2014, published 2017).
# Key:
# [1] = tested on: γ-H2AX foci in Hep3B cells; assay: γ-H2AX foci in Hep3B cells (immunocytochemistry, confocal); assay type: cell-based, human
# Description: Approximately 50,000 cells were seeded in each well of a 12-well plate and grown on circular #1.5 cover slips (Electron Microscopy Sciences, Hatfield, Pa.). After 24 hours, cells were exposed to various treatment conditions as described herein. At the end of treatment, cells were fixed, permeabilized, blocked, labeled with primary antibody, and then with secondary antibody in consecutive steps. For confocal imaging, Fluoview—FV1000 Olympus Confocal Microscope (Center Valley, Pa.) was used.
# For immunocytochemistry assay, an indirect immunofluorescence approach was used. Circular #1.5 cover slips (Electron microscopy sciences, Hatfield, Pa.) were placed in 12-well plates and sterilized using a 20-minute UV exposure. Cells from an exponentially growing culture were counted and approximately 50,000 cells were seeded in each well of a 12-well plate. Adherent sub-confluent monolayers were observed growing on the cover slip 24 hours later. At this point, cells were exposed to various treatment conditions as described herein. At the end of treatment, immunolabeling of proteins being studied was performed. Cells were fixed, permeablized, blocked, labeled with primary antibody and then with secondary antibody in consecutive steps. Between each step, cells were washed with PBS three times for 5 minutes each time on a leveled shaker at 50 RPM. Cells were fixed with 1% paraformaldehyde in PBS (w/v) for 30 minutes. Permeablization was performed using 0.3% (v/v) Triton-100 and 0.125% (w/v) CHAPS (3-[(3-Cholamidopropyl) dimethylammonio]-1-propanesulfonate) dissolved in PBS for 15 minutes. […] Primary and secondary antibodies were diluted in the blocking buffer. Incubation with primary antibody was performed over night at 4° C. Secondary antibody incubations were performed for 2 hours at room temperature. […]
# The slides were sealed with a conventional nail polish hardener and stored at 4° C. until imaging. […] Exposure settings were set to maximize dynamic range initially and then kept constant across multiple samples to allow quantitative comparisons. […]
# [2] = tested on: orthotopic pancreatic tumors (KPC pancreatic adenocarcinoma cells); assay: Gemcitabine uptake into orthotopic KPC pancreatic tumors with and without RF (LC-MS); assay type: in vivo, mouse; details: 70 mg/Kg systemic injection, sacrificed 5 hours later, RF until 41° C.
# Source text: FIGS. 11A-11E illustrate an example of an embodiment of the use RF energy to enhance the uptake of chemotherapy drugs into tumors compared to using chemotherapy drugs alone. (11A) Female Nude mice (4-6 weeks old) were given direct injections of KPC pancreatic adenocarcinoma cells (1×10^6) into the pancreas. After 1-2 weeks (enough time for a orthotopic pancreatic tumor to form) the mice were subjected to RF exposure under a ramped power treatment protocol as shown in the table. (11B) Graph of a typical RF power and resulting temperature versus time plot for a single mouse being exposed to RF energy. The surface temperature of the mouse in close proximity to the pancreas was recorded using an IR camera. The RF exposure was turned off once the temperature reached 41° C. […] Quantification of Gemcitabine was analyzed using Liquid Chromatography Mass Spectroscopy (LC-MS). (11E) Quantification of the levels of Gemcitabine in the orthotopic pancreatic tumors of mice with and without RF exposure. […]
# FIGS. 11A-11E illustrate an example of an embodiment of the use RF energy to enhance the uptake of chemotherapy drugs into tumors compared to using chemotherapy drugs alone. […] The surface temperature of the mouse in close proximity to the pancreas was recorded using an IR camera. […] Quantification of Gemcitabine was analyzed using Liquid Chromatography Mass Spectroscopy (LC-MS). […]
smiles,measurement,setting,value
"Nc1ccn([C@@H]2O[C@H](CO)[C@@H](O)C2(F)F)c(=O)n1 [gemcitabine, 2′,2′-difluoro 2′-deoxycytidine]","persistence of γ-H2AX positive cells, gemcitabine and hyperthermia versus either alone","[1]; gemcitabine 100 nM 24 hours, last two hours 42.5° C.",persisted for a longer duration
same,relative mean (±SD) γ-H2AX pixels per cell,[1]; gemcitabine alone,1.0±0.26
same,relative mean (±SD) γ-H2AX pixels per cell,[1]; hyperthermia immediately followed by gemcitabine,1.0±0.20
same,"Gemcitabine present in tumors, RF-treated mice versus control group",[2],approximately 4 ×
